Experimental data: patent US7172751B2, “D-amino acid peptides” (Immunomedics, Inc., priority 2003, dated 2007)
*1 amine or outer side, *2 acyl side, *3 side chain or, on linkers, in order; H or OH if unused. Where a SMILES comes first, the peptide text is derived from it. Side-chain parts run from the residue outwards. [ ]: non-standard residue; d: D form. The star is where a group is joined. DOTA = O=C(O)CN1CCN(CC(=O)O)CCN(CC(=O)*)CCN(CC(=O)O)CC1; NH(2-(imidazol-4-yl)ethyl) = c1ncc(CCN*)[nH]1; Suc = O=C(CCC(=O)[*:2])[*:1]

Assays:
[1] = Method: A mixture of the labeled peptide and mouse serum was made and incubated at 37° C. The mouse serum was fresh nude mouse serum obtained from (GSCC on the same day). The Indium-labeled peptide solution (50 μL) and 450 μL of the mouse serum were combined and vortexed. This was incubated at 37° C. for 18.0 hrs. Injections were made into the reverse phase HPLC at t0=0 hrs and t1=18.0 hrs.
Aliquots were withdrawn at various time points and examined by reverse phase HPLC and by size exclusion HPLC.
The peptide was monitored as described above by HPLC.

[2] = system: GW-39 human colonic xenograft tumors; assay: Biodistribution of 111In IMP 237 in mice pretargeted with hMN-14×m679; assay type: in vivo; details: pretargeting
Description: The animals were sacrificed at 3, 24, 48 hr post injection. The tumor to non-tumor ratios of the peptides in the pretargeting study are show in Table 2.

[3] = Pretargeting biodistribution of 111In-IMP 241, 281, 284 after 125I-hMN-14×m679; details: NCr nude, mouse, in vivo, total radioactivity
Description: NCr nudes: (NCI) from Taconic, 4 weeks of age
At the times shown above, 5 mice per time point will be necropsied. Tissues (tumor, liver, spleen, kidney, lungs, blood, stomach, large and small intestines) will be isolated, weighed and counted in the appropriate windows.

**Q.** Which “converted to the shorter retention time peak” value [1] does the source give for `NC(=O)[C@H](CCCCNC(=O)CNC(=O)CCC(=O)NCCc1cnc[nH]1)NC(=O)[C@H](Cc1ccc(O)cc1)NC(=O)[C@H](CCCCNC(=O)CNC(=O)CCC(=O)NCCc1cnc[nH]1)NC(=O)[C@H](Cc1ccccc1)NC(=O)CN1CCN(CC(=O)O)CCN(CC(=O)O)CCN(CC(=O)O)CC1` [IMP 237, DOTA-Phe-Lys(HSG)-Tyr-Lys(HSG)-NH2] ({DOTA}-FK([Gly-Suc-NH(2-(imidazol-4-yl)ethyl)])YK([Gly-Suc-NH(2-(imidazol-4-yl)ethyl)])-NH2) here?
**A.** The value was “about 70%”.

**Q.** What about the “% Injected/g Tissue” value ([2]; Blood, 3 hr After 111In) of the same compound?
**A.** Its value is 2.42 ± 0.61 % Injected/g Tissue.

**Q.** And the “% Injected/g Tissue” value ([2]; Blood, 24 hr After 111In)?
**A.** The value was 0.73 ± 0.17 % Injected/g Tissue.

**Q.** And the “% Injected/g Tissue” value ([2]; Blood, 48 hr After 111In)?
**A.** The value was 0.17 ± 0.06 % Injected/g Tissue.

**Q.** And the “% Injected/g Tissue” value ([2]; GW-39, 3 hr After 111In)?
**A.** Its value is 7.25 ± 2.79 % Injected/g Tissue.

**Q.** What about the “% Injected/g Tissue” value ([2]; GW-39, 24 hr After 111In) of the same compound?
**A.** The value was 8.38 ± 1.70 % Injected/g Tissue.

**Q.** And the “% Injected/g Tissue” value ([2]; GW-39, 48 hr After 111In)?
**A.** Its value is 5.39 ± 1.46 % Injected/g Tissue.

**Q.** What about the “% Injected/g Tissue” value ([2]; Kidney, 3 hr After 111In) of the same compound?
**A.** The value was 3.59 ± 0.75 % Injected/g Tissue.

**Q.** What about the “% Injected/g Tissue” value ([2]; Kidney, 24 hr After 111In) of the same compound?
**A.** Its value is 2.24 ± 0.40 % Injected/g Tissue.

**Q.** What about the “% Injected/g Tissue” value ([2]; Kidney, 48 hr After 111In) of the same compound?
**A.** Its value is 1.27 ± 0.33 % Injected/g Tissue.

**Q.** What about the “% Injected/g Tissue” value ([2]; Lg. Int., 24 hr After 111In) of the same compound?
**A.** The value was 0.17 ± 0.03 % Injected/g Tissue.

**Q.** What about the “% Injected/g Tissue” value ([2]; Lg. Int., 48 hr After 111In) of the same compound?
**A.** Its value is 0.13 ± 0.03 % Injected/g Tissue.

**Q.** And the “% Injected/g Tissue” value ([2]; Liver, 3 hr After 111In)?
**A.** The value was 0.58 ± 0.13 % Injected/g Tissue.

**Q.** And the “% Injected/g Tissue” value ([2]; Liver, 24 hr After 111In)?
**A.** The value was 0.62 ± 0.09 % Injected/g Tissue.

**Q.** What about the “% Injected/g Tissue” value ([2]; Liver, 48 hr After 111In) of the same compound?
**A.** The value was 0.61 ± 0.16 % Injected/g Tissue.

**Q.** And the “% Injected/g Tissue” value ([2]; Lungs, 3 hr After 111In)?
**A.** Its value is 1.19 ± 0.26 % Injected/g Tissue.

**Q.** What about the “% Injected/g Tissue” value ([2]; Lungs, 24 hr After 111In) of the same compound?
**A.** The value was 0.44 ± 0.10 % Injected/g Tissue.

**Q.** And the “% Injected/g Tissue” value ([2]; Lungs, 48 hr After 111In)?
**A.** Its value is 0.22 ± 0.06 % Injected/g Tissue.

**Q.** And the “% Injected/g Tissue” value ([2]; Sm. Int., 3 hr After 111In)?
**A.** The value was 0.65 ± 0.74 % Injected/g Tissue.

**Q.** And the “% Injected/g Tissue” value ([2]; Sm. Int., 24 hr After 111In)?
**A.** Its value is 0.18 ± 0.03 % Injected/g Tissue.

**Q.** And the “% Injected/g Tissue” value ([2]; Sm. Int., 48 hr After 111In)?
**A.** The value was 0.11 ± 0.02 % Injected/g Tissue.

**Q.** What about the “% Injected/g Tissue” value ([2]; Spleen, 3 hr After 111In) of the same compound?
**A.** The value was 0.50 ± 0.14 % Injected/g Tissue.

**Q.** What about the “% Injected/g Tissue” value ([2]; Spleen, 24 hr After 111In) of the same compound?
**A.** Its value is 0.71 ± 0.16 % Injected/g Tissue.

**Q.** And the “% Injected/g Tissue” value ([2]; Spleen, 48 hr After 111In)?
**A.** Its value is 0.57 ± 0.15 % Injected/g Tissue.

**Q.** What about the “% Injected/g Tissue” value ([2]; Stomach, 3 hr After 111In) of the same compound?
**A.** Its value is 0.18 ± 0.03 % Injected/g Tissue.

**Q.** For `NC(=O)[C@H](CCCCNC(=O)CNC(=O)CCC(=O)NCCc1cnc[nH]1)NC(=O)[C@@H](Cc1ccc(O)cc1)NC(=O)[C@H](CCCCNC(=O)CNC(=O)CCC(=O)NCCc1cnc[nH]1)NC(=O)[C@H](Cc1ccccc1)NC(=O)CN1CCN(CC(=O)O)CCN(CC(=O)O)CCN(CC(=O)O)CC1` [IMP 241, DOTA-Phe-Lys(HSG)-D-Tyr-Lys(HSG)-NH2, reference compound] ({DOTA}-FK([Gly-Suc-NH(2-(imidazol-4-yl)ethyl)])[dY]K([Gly-Suc-NH(2-(imidazol-4-yl)ethyl)])-NH2), which “decomposed in mouse serum” value [1] is on record?
**A.** The value was roughly 5%.

**Q.** What about the tissue uptake at 24 h [3] of the same compound?
**A.** The tissue uptake at 24 h was 0.28 %ID/g.
